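Test compounds were applied to cells in 96-well plates for 48 hours at 5 doses. Here, GI50 denotes the concentration required for 50% inhibition of growth.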 The source made the active and inactive calls. No stated cut-off is given here; in the data, active = GI50 up to about 1.1 µM and inactive = higher.
Assays:
Assay in all cases: growth of human tumour cells (NCI), 48 h
HCT-15 = test system: HCT-15
HOP-92 = test system: HOP-92
CAKI-1 = test system: CAKI-1
UO-31 = test system: UO-31
SK-MEL-5 = test system: SK-MEL-5
NCI-H522 = test system: NCI-H522
SNB-19 = test system: SNB-19
MDA-MB-435 = test system: MDA-MB-435
UACC-62 = test system: UACC-62
HT-29 = test system: HT-29
MDA-MB-231 = test system: MDA-MB-231
SF-539 = test system: SF-539
SF-268 = test system: SF-268
CCRF-CEM = test system: CCRF-CEM
HCT-116 = test system: HCT-116
RPMI-8226 = test system: RPMI-8226
SK-OV-3 = test system: SK-OV-3
RXF 393 = test system: RXF 393

Structure (SMILES): c1ccc2c(c1)CCc1c-2n(CCN2CCCCC2)c2ccccc12
- GI50 (HCT-15): 10.6 µM
- GI50 (HOP-92): 16.4 µM (inactive)
- GI50 (CAKI-1): 16.6 µM (inactive)
- GI50 (UO-31): 11.4 µM (inactive)
- GI50 (SK-MEL-5): 0.564 µM (active)
- GI50 (NCI-H522): 13.5 µM (inactive)
- GI50 (SNB-19): 26 µM (inactive)
- GI50 (MDA-MB-435): 25.4 µM (inactive)
- GI50 (UACC-62): 14.8 µM (inactive)
- GI50 (HT-29): 8.2 µM (inactive)
- GI50 (MDA-MB-231): 13.2 µM (inactive)
- GI50 (SF-539): 12.9 µM (inactive)
- GI50 (SF-268): 21.2 µM (inactive)
- GI50 (CCRF-CEM): 15.6 µM (inactive)
- GI50 (HCT-116): 12.5 µM (inactive)
- GI50 (RPMI-8226): 10.3 µM (inactive)
- GI50 (SK-OV-3): 23.7 µM (inactive)

Structure (SMILES): CC(=O)N1c2ccccc2C23CCN4CC5=CCOC(O)C(C5CC42)C13 (stereo unspecified)
- GI50 (HCT-15): > 100 µM
- GI50 (HOP-92): > 100 µM (inactive)
- GI50 (CAKI-1): > 100 µM (inactive)
- GI50 (UO-31): > 100 µM (inactive)
- GI50 (SK-MEL-5): > 100 µM (inactive)
- GI50 (NCI-H522): > 100 µM (inactive)
- GI50 (SNB-19): > 100 µM (inactive)
- GI50 (MDA-MB-435): > 100 µM (inactive)
- GI50 (UACC-62): > 100 µM (inactive)
- GI50 (HT-29): > 100 µM (inactive)
- GI50 (MDA-MB-231): > 100 µM (inactive)
- GI50 (SF-539): > 100 µM (inactive)
- GI50 (SF-268): > 100 µM (inactive)
- GI50 (CCRF-CEM): > 100 µM (inactive)
- GI50 (HCT-116): > 100 µM (inactive)
- GI50 (RPMI-8226): > 100 µM (inactive)
- GI50 (SK-OV-3): > 100 µM (inactive)

Structure (SMILES): Cc1c(C(=O)C(=O)c2ccccc2)c(C)c(C(=O)C(=O)c2ccccc2)c(C)c1C(=O)C(=O)c1ccccc1
- GI50 (HCT-15): > 100 µM
- GI50 (UO-31): > 100 µM (inactive)
- GI50 (SK-MEL-5): > 100 µM (inactive)
- GI50 (NCI-H522): > 100 µM (inactive)
- GI50 (SNB-19): > 100 µM (inactive)
- GI50 (MDA-MB-435): > 100 µM (inactive)
- GI50 (HT-29): > 100 µM (inactive)
- GI50 (MDA-MB-231): > 100 µM (inactive)
- GI50 (SF-539): > 100 µM (inactive)
- GI50 (SF-268): > 100 µM (inactive)
- GI50 (CCRF-CEM): > 100 µM (inactive)
- GI50 (HCT-116): > 100 µM (inactive)
- GI50 (RPMI-8226): > 100 µM (inactive)
- GI50 (SK-OV-3): > 100 µM (inactive)

Structure (SMILES): C(=N\OCCc1ccccc1)/c1cccnc1
- GI50 (HCT-15): > 100 µM
- GI50 (RXF 393): > 100 µM (inactive)
- GI50 (HOP-92): > 100 µM (inactive)
- GI50 (UO-31): > 100 µM (inactive)
- GI50 (SK-MEL-5): > 100 µM (inactive)
- GI50 (NCI-H522): > 100 µM (inactive)
- GI50 (SNB-19): > 100 µM (inactive)
- GI50 (MDA-MB-435): > 100 µM (inactive)
- GI50 (UACC-62): > 100 µM (inactive)
- GI50 (HT-29): > 100 µM (inactive)
- GI50 (MDA-MB-231): > 100 µM (inactive)
- GI50 (SF-539): > 100 µM (inactive)
- GI50 (SF-268): > 100 µM (inactive)
- GI50 (CCRF-CEM): > 100 µM (inactive)
- GI50 (HCT-116): > 100 µM (inactive)
- GI50 (RPMI-8226): > 100 µM (inactive)
- GI50 (SK-OV-3): > 100 µM (inactive)

Structure (SMILES): COc1ccc(C(OCC2OC3(COC(c4ccccc4)(c4ccc(OC)cc4)c4ccc(OC)cc4)C(Oc4nc(=O)ccn43)C2O)(c2ccccc2)c2ccc(OC)cc2)cc1 (stereo unspecified)
- GI50 (HCT-15): > 100 µM
- GI50 (RXF 393): > 100 µM (inactive)
- GI50 (CAKI-1): > 100 µM (inactive)
- GI50 (UO-31): > 100 µM (inactive)
- GI50 (SK-MEL-5): > 100 µM (inactive)
- GI50 (NCI-H522): > 100 µM (inactive)
- GI50 (SNB-19): 88.9 µM (inactive)
- GI50 (MDA-MB-435): > 100 µM (inactive)
- GI50 (UACC-62): > 100 µM (inactive)
- GI50 (HT-29): > 100 µM (inactive)
- GI50 (MDA-MB-231): > 100 µM (inactive)
- GI50 (SF-539): > 100 µM (inactive)
- GI50 (SF-268): > 100 µM (inactive)
- GI50 (CCRF-CEM): > 100 µM (inactive)
- GI50 (HCT-116): > 100 µM (inactive)
- GI50 (RPMI-8226): 71.1 µM (inactive)
- GI50 (SK-OV-3): > 100 µM (inactive)

Structure (SMILES): COC(=O)c1c(C)cc(OC)c(C/C=C(\C)CCCc2coc(C=C(C)C)c2)c1OC
- GI50 (HCT-15): > 100 µM
- GI50 (HOP-92): > 100 µM (inactive)
- GI50 (CAKI-1): > 100 µM (inactive)
- GI50 (UO-31): > 100 µM (inactive)
- GI50 (SK-MEL-5): > 100 µM (inactive)
- GI50 (NCI-H522): 14.9 µM (inactive)
- GI50 (SNB-19): > 100 µM (inactive)
- GI50 (MDA-MB-435): > 100 µM (inactive)
- GI50 (UACC-62): > 100 µM (inactive)
- GI50 (HT-29): 74.8 µM (inactive)
- GI50 (MDA-MB-231): > 100 µM (inactive)
- GI50 (SF-539): 49 µM (inactive)
- GI50 (SF-268): 1.71 µM (inactive)
- GI50 (CCRF-CEM): 41.5 µM (inactive)
- GI50 (HCT-116): > 100 µM (inactive)
- GI50 (RPMI-8226): 99.5 µM (inactive)

Structure (SMILES): c1ccc(C2CC(NC3CCCCC3)=Nc3ccccc3N2)cc1 (stereo unspecified)
- GI50 (HCT-15): 94.2 µM
- GI50 (RXF 393): 31.7 µM (inactive)
- GI50 (CAKI-1): 98.9 µM (inactive)
- GI50 (UO-31): > 100 µM (inactive)
- GI50 (SK-MEL-5): 18.7 µM (inactive)
- GI50 (NCI-H522): 22.8 µM (inactive)
- GI50 (SNB-19): > 100 µM (inactive)
- GI50 (MDA-MB-435): 24.3 µM (inactive)
- GI50 (UACC-62): 31.2 µM (inactive)
- GI50 (HT-29): 24.2 µM (inactive)
- GI50 (MDA-MB-231): 24.5 µM (inactive)
- GI50 (SF-268): 65.3 µM (inactive)
- GI50 (CCRF-CEM): 34.9 µM (inactive)
- GI50 (HCT-116): 73.5 µM (inactive)
- GI50 (RPMI-8226): 34 µM (inactive)
- GI50 (SK-OV-3): > 100 µM (inactive)

Structure (SMILES): COC(=O)c1cc(C)ccc1C1CN=NC12Cc1c(C)cc(C)cc1C2=O (stereo unspecified)
- GI50 (HCT-15): 22.5 µM
- GI50 (RXF 393): 22.2 µM (inactive)
- GI50 (HOP-92): 13.8 µM (inactive)
- GI50 (CAKI-1): 31.4 µM (inactive)
- GI50 (UO-31): 23 µM (inactive)
- GI50 (SK-MEL-5): 17 µM (inactive)
- GI50 (NCI-H522): 13.6 µM (inactive)
- GI50 (SNB-19): 31 µM (inactive)
- GI50 (MDA-MB-435): 16.3 µM (inactive)
- GI50 (UACC-62): 16.9 µM (inactive)
- GI50 (HT-29): 18.3 µM (inactive)
- GI50 (MDA-MB-231): 19.7 µM (inactive)
- GI50 (SF-539): 17.1 µM (inactive)
- GI50 (SF-268): 20.8 µM (inactive)
- GI50 (CCRF-CEM): 26.5 µM (inactive)
- GI50 (HCT-116): 14.7 µM (inactive)
- GI50 (SK-OV-3): 17 µM (inactive)

Source: ChEMBL document CHEMBL1201862, “PubChem BioAssay data set” (2004)
